Assay results from patent US10189863B2, “5,6-dihydro-4H-benzo[b]thieno-[2,3-d]azepine derivatives” (PULMOCIDE LIMITED, priority 2014, dated 2019).
Read-outs that look alike come from different tables or passages of the source.

What was measured:
RSV A2 strain = assay: Assessment of RSV induced CPE in HEp2 cells (RSV A2 strain); assay type: cell-based; conditions: human respiratory syncytial virus; for IC50: HEp-2, 120 h; for inhibition at 0.01 µg/mL: Inhibition (%) at 0.01 μg/mL
Experimental: (§1) Assessment of RSV Induced CPE in HEp2 Cells
(§2) HEp2 cells were seeded (10^3/well/50 μL) in 384-well plates (Catalogue number 353962, BD Falcon, Oxford, UK) in […] containing 2 mM L-glutamine and 1 mM sodium pyruvate one day before infection. RSV A2 strain (#0709161v, NCPV, Public Health England, Wiltshire) or RSV B Washington strain (VR-1580, ATCC, Manassas, Va. 20108) virus solutions were prepared in serum free-DMEM with 2 mM L-glutamine and 1 mM sodium pyruvate, and then added (50 μL/well) to achieve a final virus concentration of 1 MOI. Simultaneously test compounds (0.5 μL DMSO solution) were added to 100 μL of HEp2 cell culture with virus solution to provide a final DMSO solution of 0.5%. Plates were incubated (37° C./5% CO2) for 5 days for studies using RSV A2 strain or 6 days for those using RSV B strain, and then resazurin sodium salt (5 μL of 0.03% solution; Sigma-Aldrich, Dorset, UK) was added to each well and the plate incubated for a further 6 hr (37° C./5% CO2). The fluorescence of each well [545 nm (excitation)/590 nm (emission)] was determined using a multi-scanner (Clariostar: BMG, Buckinghamshire, UK). The percentage inhibition for each well was calculated and the IC50, IC75 and IC90 values were calculated from the concentration-response curve generated for each test compound.

RSV B Washington strain = assay: Assessment of RSV induced CPE in HEp2 cells (RSV B Washington strain); assay type: cell-based; conditions: human respiratory syncytial virus; for IC50: HEp-2, 144 h
Experimental: as §1, §2

[1] = Cell viability: resazurin assay; assay type: cell-based, human; conditions: human, HEp2 cells
Experimental: Cell Viability: Resazurin Assay
HEp2 cells were seeded in 384-well plates (10^3/well/50 μL; BD Falcon Ref 353962) in FBS DMEM (5%, containing 2 mM L-glutamine and 1 mM sodium pyruvate) one day before experimentation. Serum-free DMEM (50 μL) was added to test wells while for control wells the media was removed and sterile water (100 μL) was added. Test compounds (0.5 μL DMSO solution) were added to give a final DMSO concentration of 0.5%. Hep2 cells were incubated with each test compound for 5 days (37° C./5% CO2 in 5% FBS) and then resazurin stock solution (5 μL; 0.03%) was added to each well and the plate incubated for a further 6 hr (37° C./5% CO2). The fluorescence of each well at 545 nm (excitation) and 590 nm (emission) was determined using a multi-scanner (Clariostar: BMG Labtech). The percentage loss of cell viability was calculated for each well relative to vehicle (0.5% DMSO) treatment.
Any apparent increase in cell viability associated with test compound treatment relative to vehicle is consequently tabulated as a negative percentage. Where appropriate, a CC50 value was calculated from the concentration-response curve generated from the concentration-response curve for each test compound.

[2] = HEp-2, read-out: RSV A2 CPE % Inhibition
[3] = HEp-2, read-out: RSV B CPE % Inhibition
[4] = HEp2 cells, 1 MOI, 5 days, read-out: RSV A2 CPE IC50
[5] = HEp-2, HEp2 cells, Inhibition (%) at 0.1 μg/mL, read-out: RSV A2 CPE % Inhibition
[6] = HEp2 cells, 1 MOI, 6 days, read-out: RSV B CPE IC50
[7] = HEp-2, HEp2 cells, Inhibition (%) at 1 μg/mL, read-out: RSV B CPE % Inhibition

Row | Compound | IC50 (RSV A2 strain; read-out: RSV A2 CPE IC50 (nM)) [nM] | inhibition at 0.1 µg/mL (RSV A2 strain; [2]) [%] | IC50 (RSV B Washington strain; read-out: RSV B CPE IC50 (nM)) [nM] | inhibition at 1 µg/mL (RSV B Washington strain; [3]) [%] | CC50 at 5 days [1] [µM] | IC50 (RSV A2 strain; [4]) [nM] | inhibition at 0.1 µg/mL (RSV A2 strain; [5]) [%] | IC50 (RSV B Washington strain; [6]) [nM] | inhibition at 1 µg/mL (RSV B Washington strain; [7]) [%] | inhibition at 0.01 µg/mL (RSV A2 strain; HEp-2, HEp2 cells) [%] | inhibition at 0.1 µg/mL (RSV B Washington strain; HEp-2, HEp2 cells, Inhibition (%) at 0.1 μg/mL) [%]
1 | O=C(Nc1ccccc1)c1cc2c(s1)-c1ccccc1N(C(=O)c1ccc(NC(=O)c3cccnc3N3CC4(CCOCC4)C3)cc1)CC2 [Example 1, 6-(4-(2-(7-oxa-2-azaspiro[3.5]nonan-2-yl)nicotinamido)benzoyl)-N-phenyl-5,6-dihydro-4H-benzo[b]thieno[2,3-d]azepine-2-carboxamide] | 0.5 | 98 | 166 | 77 | > 14.9 | – | – | – | – | – | –
2 | N#Cc1ccccc1NC(=O)c1cc2c(s1)-c1ccccc1N(C(=O)c1ccc(NC(=O)c3cccnc3N3CC4(CCOCC4)C3)cc1)CC2 [Example 2, 6-(4-(2-(7-oxa-2-azaspiro[3.5]nonan-2-yl)nicotinamido)benzoyl)-N-(2-cyanophenyl)-5,6-dihydro-4H-benzo[b]thieno[2,3-d]azepine-2-carboxamide] | 0.16 | 91 | 314 | 69 | > 14.4 | – | – | – | – | – | –
3 | COc1ccc(C(=O)Nc2ccc(C(=O)N3CCc4cc(C(=O)Nc5ccccc5F)sc4-c4ccccc43)cc2)c(N2CC3(CCOCC3)C2)n1 [Example 3, 6-(4-(6-methoxy-2-(7-oxa-2-azaspiro[3.5]nonan-2-yl)nicotinamido)benzoyl)-N-(2-fluorophenyl)-5,6-dihydro-4H-benzo[b]thieno[2,3-d]azepine-2-carboxamide] | – | – | – | – | > 13.9 | 1.3 | 100 | 195 | 58 | – | –
4 | O=C(Nc1ccccc1F)c1cc2c(s1)-c1ccccc1N(C(=O)c1ccc(NC(=O)c3cc(C4CC4)cnc3N3CC4(CCOCC4)C3)cc1)CC2 [Example 4, 6-(4-(5-Cyclopropyl-2-(7-oxa-2-azaspiro[3.5]nonan-2-yl)nicotinamido)benzoyl)-N-(2-fluorophenyl)-5,6-dihydro-4H-benzo[b]thieno[2,3-d]azepine-2-carboxamide] | – | – | – | – | > 13.7 | 2.1 | – | 49.3 | 83 | 100 | –
5 | Cc1cnc(N2CC3(CCOCC3)C2)c(C(=O)Nc2ccc(C(=O)N3CCc4cc(C(=O)Nc5c(F)cccc5I)sc4-c4ccccc43)cc2)c1 [Example 6, N-(2-Fluoro-6-iodophenyl)-6-(4-(5-methyl-2-(7-oxa-2-azaspiro[3.5]nonan-2-yl)nicotinamido)benzoyl)-5,6-dihydro-4H-benzo[b]thieno[2,3-d]azepine-2-carboxamide] | – | – | – | – | > 12.1 | 0.13 | – | 4.2 | 100 | 100 | –
6 | Cc1cnc(N2CC3(CCOCC3)C2)c(C(=O)Nc2ccc(C(=O)N3CCc4cc(C(=O)Nc5c(F)cccc5C5CC5)sc4-c4ccccc43)cc2)c1 [Example 7, N-(2-Cyclopropyl-6-fluorophenyl)-6-(4-(5-methyl-2-(7-oxa-2-azaspiro[3.5]nonan-2-yl)nicotinamido)benzoyl)-5,6-dihydro-4H-benzo[b]thieno[2,3-d]azepine-2-carboxamide] | – | – | – | – | > 13.5 | 0.15 | 100 | 98.6 | 94 | – | –
7 | Cc1cccc(F)c1NC(=O)c1cc2c(s1)-c1ccccc1N(C(=O)c1ccc(NC(=O)c3cc(C4CC4)cnc3N3CC4(CCOCC4)C3)cc1)CC2 [Example 11, 6-(4-(5-Cyclopropyl-2-(7-oxa-2-azaspiro[3,5]nonan-2-yl)nicotinamido)benzoyl)-N-(2-fluoro-6-methylphenyl)-5,6-dihydro-4H-benzo[b]thieno[2,3-d]azepine-2-carboxamide] | – | – | – | – | > 13.5 | 0.28 | 93 | 25.9 | 95 | – | –
8 | Cc1cccc(F)c1NC(=O)c1cc2c(s1)-c1ccccc1N(C(=O)c1ccc(NC(=O)c3cc4c(nc3N3CC5(CCOCC5)C3)CCOC4)cc1)CC2 [Example 12, N-(4-(2-((2-Fluoro-6-methylphenyl)carbamoyl)-5,6-dihydro-4H-benzo[b]thieno[2,3-d]azepine-6-carbonyl)phenyl)-2-(7-oxa-2-azaspiro[3.5]nonan-2-yl)-7,8-di hydro-5H-pyrano[4,3-b]pyridine-3-carboxamide] | – | – | – | – | > 13.2 | 0.42 | – | 1.3 | 98 | 100 | –
9 | O=C(Nc1c(F)cccc1F)c1cc2c(s1)-c1ccccc1N(C(=O)c1ccc(NC(=O)c3cc4sccc4nc3N3CC4(CCOCC4)C3)cc1)CC2 [Example 13, 6-(4-(5-(7-Oxa-2-azaspiro[3.5]nonan-2-yl)thieno[3,2-b]pyridine-6-carboxamido)benzoyl)-N-(2,6-difluorophenyl)-5,6-dihydro-4H-benzo[b]thieno[2,3-d]azepine-2-carboxamide] | – | – | – | – | > 13.1 | 0.45 | – | 0.96 | 100 | 100 | –
10 | CCc1ccccc1NC(=O)c1cc2c(s1)-c1ccccc1N(C(=O)c1ccc(NC(=O)c3cccnc3N3CC4(CCOCC4)C3)cc1)CC2 [Example 17, 6-(4-(2-(7-oxa-2-azaspiro[3.5]nonan-2-yl)nicotinamido)benzoyl)-N-(2-ethylphenyl)-5,6-dihydro-4H-benzo[b]thieno [2,3-d]azepine-2-carboxamide] | – | – | – | – | > 14.3 | 0.66 | 100 | 204 | 77 | – | –
11 | C#Cc1ccc(NC(=O)c2cc3c(s2)-c2ccccc2N(C(=O)c2ccc(NC(=O)c4cccnc4N4CC5(CCOCC5)C4)cc2)CC3)cc1 [Example 18, 6-(4-(2-(7-oxa-2-azaspiro[3.5]nonan-2-yl)nicotinamido)benzoyl)-N-(4-ethynylphenyl)-5,6-dihydro-4H-benzo[b] thieno[2,3-d]azepine-2-carboxamide] | – | – | – | – | > 14.4 | 0.16 | 75 | > 1440 | 18 | – | –
12 | O=C(Nc1c(F)cccc1F)c1cc2c(s1)-c1ccccc1N(C(=O)c1ccc(NC(=O)c3cccnc3N3CC4(CCOCC4)C3)cc1)CC2 [Example 19, 6-(4-(2-(7-oxa-2-azaspiro[3.5]nonan-2-yl)nicotinamido)benzoyl)-N-(2,6-difluorophenyl)-5,6-dihydro-4H-benzo[b] thieno[2,3-d]azepine-2-carboxamide] | – | – | – | – | > 14.2 | 0.14 | 88 | 28 | – | – | 100
13 | O=C(Nc1ccc(F)cc1F)c1cc2c(s1)-c1ccccc1N(C(=O)c1ccc(NC(=O)c3cccnc3N3CC4(CCOCC4)C3)cc1)CC2 [Example 20, 6-(4-(2-(7-oxa-2-azaspiro[3.5]nonan-2-yl)nicotinamido)benzoyl)-N-(2,4-difluorophenyl)-5,6-dihydro-4H-benzo[b] thieno[2,3-d]azepine-2-carboxamide] | – | – | – | – | > 14.2 | 0.36 | 100 | 129 | 80 | – | –
14 | O=C(Nc1ccc(Cl)cc1F)c1cc2c(s1)-c1ccccc1N(C(=O)c1ccc(NC(=O)c3cccnc3N3CC4(CCOCC4)C3)cc1)CC2 [Example 21, 6-(4-(2-(7-oxa-2-azaspiro[3.5]nonan-2-yl)nicotinamido)benzoyl)-N-(4-chloro-2-fluorophenyl)-5,6-dihydro-4H-benzo[b]thieno[2,3-d]azepine-2-carboxamide] | – | – | – | – | > 13.8 | 1.3 | 100 | 100 | 73 | – | –
